Reference: patent US20020132792A1, “Aryl-substituted indirubin derivatives, their production and use” (Schering AG, priority 2000, published 2002)

What was measured:
CDK2/CycE = biological target: T1, CDK2/CycE (Homo sapiens, UniProt P24941); assay: CDK2/CycE kinase assay; type: biochemical; details: recombinant CDK2/CycE-GST, histone IIIS substrate, 0.5 μm ATP, 15 minutes at 22° C.
T1 construct: GST; purchased Dr. Dieter Marmé, Klinik für Tumorbiologie, Freiburg (obtained from an outside laboratory); host or cells: baculovirus-infected Sf9 insect cells
Description: Recombinant CDK2- and CycE-GST-fusion proteins, purified from baculovirus-infected insect cells (Sf9), were obtained by Dr. Dieter Marmé, Klinik für Tumorbiologie [Clinic for Tumor Biology], Freiburg. Histone IIIS, which was used as a kinase substrate, was purchased by the Sigma Company.
CDK2/CycE (50 ng/measuring point) was incubated for 15 minutes at 22° C. in the presence of various concentrations of test substances (0 μm, as well as within the range of 0.01-100 μm) in assay buffer [50 mmol of tris/HCl pH 8.0, 10 mmol of MgCl2, 0.1 mmol of Na ortho-vanadate, 1.0 mmol of dithiothreitol, 0.5 μm of adenosine triphosphate (ATP), 10 μg/measuring point of histone IIIS, 0.2 μCi/measuring point of ^33P-gamma ATP, 0.05% NP40, 12.5% dimethyl sulfoxide]. The reaction was stopped by adding EDTA solution (250 mmol, pH 8.0, 14 μl/measuring point).
From each reaction batch, 10 μl was applied to P30 filter strips (Wallac Company), and non-incorporated ^33P-ATP was removed by subjecting the filter strips to three washing cycles for 10 minutes each in 0.5% phosphoric acid. After the filter strips were dried for one hour at 70° C., the filter strips were covered with scintillator strips (MeltiLex™ A, Wallac Company) and baked for one hour at 90° C. The amount of incorporated ^33P (substrate phosphorylation) was determined by scintillation measurement in a gamma-radiation measuring device (Wallac).

MCF-7 cells = assay: Proliferation assay (crystal violet); type: cell-based; details: MCF7, 96 h, MCF-7 human tumor cells, 4 days incubation
Description: Cultivated human tumor cells (as indicated) were flattened out at a density of 5000 cells/measuring point in a 96-well multititer plate in 200 μl of the corresponding growth medium. After 24 hours, the cells of one plate (zero-point plate) were colored with crystal violet (see below), while the medium of the other plates was replaced by fresh culture medium (200 μl), to which the test substances were added in various concentrations (0 μm, as well as in the range of 0.01-30 μm; the final concentration of the solvent dimethyl sulfoxide was 0.5%). The cells were incubated for 4 days-in the presence of test substances. The cell proliferation was determined by coloring the cells with crystal violet: the cells were fixed by adding 20 μl/measuring point of a 11% glutaric aldehyde solution for 15 minutes at room temperature. After subjecting the fixed cells to three washing cycles with water, the plates were dried at room temperature. The cells were colored by adding 100 μL/measuring point of a 0.1% crystal violet solution (pH was set at 3 by adding acetic acid). […] The extinction was determined by photometry at a wavelength of 595 nm. The change of cell growth, in percent, was calculated by standardization of the measured values to the extinction values of the zero-point plate (=0%) and the extinction of the untreated (0 μm) cells (=100%).

| IC50 (CDK2/CycE) [nM] | melting point [°C] | Structure (SMILES) | IC50 (MCF-7 cells) [nM] |
| --- | --- | --- | --- |
| > 5000 | > 300 | COc1ccc(-c2ccc3c(c2)/C(=C2/Nc4ccccc4C2=O)C(=O)N3)cc1 [Example 1.0, 5-(4-Methoxyphenyl)-indirubin] |  |
| 1000 |  | O=C1Nc2ccc(-c3ccccc3)cc2C1=C1Nc2ccccc2C1=O [Example 1.1] |  |
| 600 |  | O=C1Nc2ccc(-c3cc(C(F)(F)F)cc(C(F)(F)F)c3)cc2C1=C1Nc2ccccc2C1=O [Example 1.3] |  |
| 30 |  | O=C1Nc2ccc(-c3ccc(Cl)cc3)cc2C1=C1Nc2ccccc2C1=O [Example 1.4] | 500 |
| 300 |  | CC(C)(C)c1ccc(-c2ccc3c(c2)C(=C2Nc4ccccc4C2=O)C(=O)N3)cc1 [Example 1.5] |  |

| Structure (SMILES) | IC50 (CDK2/CycE) [nM] | melting point [°C] | IC50 (MCF-7 cells) [nM] |
| --- | --- | --- | --- |
| CC(C)(C)[Si](C)(C)Oc1cccc(-c2ccc3c(c2)C(=C2Nc4ccccc4C2=O)C(=O)N3)c1 [Example 1.2] | 150 |  | 4000 |
